Earlier results on 11 compounds are cited in publication PMC9683570.

Each structure is given as a SMILES string. Where a name gives a salt, the structure may show the parent alone. Read-outs that look alike come from different tables or passages of the source.

Data set [1] relates to hCav1.2. More on the design: method as in PMID 23651875. Conditions: RT.
Data set [2] concerns hCaV1.2, β2, α2δ. Conditions: ambient, 1.8 Ca2+.
The subject of data set [3] is hCaV1.2α, β2, α2δ1 subunits. More on the design: method as in PMID 30151907. To be noted: IonWorks Barracuda, ambient temperature, […] Ca2+, current at 0 mV step, 10 s interval, rundown adjusted; read-out: IC50 (Li et al. 2018).
Data set [4] relates to L-type Ca2+ current. Further details: method as in PMID 19367686. To be noted: 20–25 °C, 10 Ca2+.
The test system of data set [5] is CaVAb (voltage-dependent Ca2+-selective channel). To be noted: 13 Ba2+.
Details of data set [6]: method as in DrugBank. To be noted: predicted, based on ChemAxon; ref DrugBank.
Data set [7] deals with CaV1.2, α2δ, β2a. Conditions: 22–25 °C, 20 Ba2+.
Data set [8] deals with L-type Ca2+ current. Conditions: RT (22–25 °C), 2 Ca2+.
Data set [9] concerns CaV1.2, α2δ, β1b. Conditions: read-out: IC50 (± SE); RT, 10 Ba2+.
For data set [10], the system named is CaV1.2, α2δ, β2a. To be noted: ~25 °C.
Data set [11] concerns CaV1.2, α2δ, β2a along with Kir2.3. Conditions: 30 Ba2+.
Data set [12] concerns NaV1.5 channels. To be noted: similar concentrations as tested on CaV1.2.
The test system of data set [13] is L-type Ca2+ channels. More on the design: method as in PMID 17909749. Conditions: from 22°C to 37°C.
Data set [14] has as its system Ca2+ current (L-type). Conditions: peak current inhibited less potently than late current at end of step depolarization.

With `COc1ccc(CCN(C)CCCC(C#N)(c2ccc(OC)c(OC)c2)C(C)C)cc1OC` (racemic) [Verapamil, (±)-verapamil hydrochloride], the pIC50 in data set [1] is listed as […]. In addition, the IC50 was […] in data set [1] (converted from pIC50); […] in [3]; 0.79 µM in data set [4]; […] in [5] (20 pulses at 1 Hz, read-out: IC50 (± SE)). The “nH (± SE)” value in data set [2] is reported as […].

Take `CC(C)COCC(CN(Cc1ccccc1)c1ccccc1)N1CCCC1` (stereo not drawn) [Bepridil]: the IC50 in data set [3] was 638 µM. Moreover, the “Log P” value in [6] is given as 5.49.

Regarding `CN(C)CCCN1c2ccccc2Sc2ccc(Cl)cc21` [Chlorpromazine], the IC50 in [3] was 6.35 µM. Also, in data set [6], the “Log P” value is recorded as 4.54.

Consider `COc1ccc([C@@H]2Sc3ccccc3N(CCN(C)C)C(=O)[C@@H]2OC(C)=O)cc1` [Diltiazem, diltiazem hydrochloride], for which the IC50 was 85 ± 9 µM in [7]; 0.63 ± 0.05 µM in data set [8] (read-out: IC50 (± SE)); 65 ± 13 µM in [9]; 0.76 ± 0.08 µM in data set [2]; 31.6 µM in [3]; 109 µM in [10] (5 mM Ba2+, read-out: IC50 (± SE) (Ba2+) (converted)). The IC50 is 250 ± 16 µM in data set [10] (1.8 Ca2+, read-out: IC50 (± SE) (Ca2+)); 30 µM in data set [4]; 41 µM in data set [5] (20 ms single pulse from -120 mV, read-out: IC50, resting state block); 10.4 µM in data set [5] (20 pulses at 1 Hz from -120 mV, read-out: IC50, use-dependent block); 36 µM in data set [11] (read-out: IC50 (automated), PatchXpress 7000A, 22–26 °C); 44 µM in [11] (read-out: IC50 (manual), manual, 20–25 °C). In addition, the nH in data set [8] is on record as 0.77. Moreover, the “nH (± SE)” value in data set [2] is given as 1.14 ± 0.15.

In the case of `C=CCN1CC[C@]23c4c5ccc(O)c4O[C@H]2C(=O)CC[C@@]3(O)[C@H]1C5` [Naloxone, Naloxone hydrochloride], the “nH on the peak and the late current” value in [12] is recorded as no less than 0.8.

`O=C1CC[C@@]2(O)[C@H]3Cc4ccc(O)c5c4[C@@]2(CCN3CC2CC2)[C@H]1O5` [Naltrexone, naltrexone hydrochloride]: the “nH on the peak and the late current” value in data set [12] is on record as no less than 0.8.

For `Cc1nccn1CC1CCc2c(c3ccccc3n2C)C1=O` (stereo not drawn) [Ondansetron], in [3], the IC50 is 9310 µM. In addition, the “Log P” value in data set [6] is 2.35.

Take `CC(C)(C)c1ccc(C(O)CCCN2CCC(C(O)(c3ccccc3)c3ccccc3)CC2)cc1` (stereo not drawn) [Terfenadine]: in data set [3], the IC50 is […]. For the same compound, the “Log P” value in data set [6] is recorded as 6.48.

For the compound `Cc1c(-c2ccccc2)oc2c(C(=O)OCCN3CCCCC3)cccc2c1=O` [flavoxate], the “increase in block potency on raising the recording temperature” value in [13] is given as 2.2 X.

Consider `COC(=O)C1=C(C)NC(C)=C(C(=O)OC)C1c1ccccc1[N+](=O)[O-]` [nifedipine], for which, in data set [13], the “increase in block potency on raising the recording temperature” value is recorded as 7 X.

Regarding `COCCOC(=O)C1=C(C)NC(C)=C(C(=O)OC(C)C)C1c1cccc([N+](=O)[O-])c1` (stereo not drawn) [nimodipine], the “difference in the IC50s, peak vs late Ca2+ current” value in data set [14] is given as 13.1 X.
